In paper PMC8228365, “Degradation Products of Tryptophan in Cell Culture Media: Contribution to Color and Toxicity” (International Journal of Molecular Sciences, 2021):
Where two headings read alike, the source gives them in different places.

What was measured:
CHOK1 GS cells = test: CellTiter-Glo cytotoxicity assay in CHOK1 GS cell line; type: cell-based, Chinese hamster; conditions: Cricetulus griseus
Method: To assay the potential toxicity induced in the CHO cell culture by the Trp degradation products found in this study, a cytotoxicity assay CellTiter-Glo® Luminescent Cell Viability Assay (Cat #G7572, Promega, Madison, WI, USA) was used, following the manufacturer’s instructions. Briefly, the cells were seeded with 25,000 viable cells per cavity of a 96-well opaque white cell culture plate (Thermo Fisher, Waltham, MA, USA) in 80 µL of a pre-warmed medium. […] A DMSO control was added in the same concentration range as the tryptophan degradation compounds were diluted.

[1] = Color measurement (ΔE*) of standards spiked into water; type: physicochemical; conditions: theoretical 500 µM, 1% DMSO, ΔE* > 1 deemed significant
Method: (§1) Compounds were dissolved in DMSO at 50 mM and then spiked into the solutions to achieve a final compound concentration of 500µM. Some of the tested compounds formed a precipitate immediately upon spiking of the DMSO solution. As the precipitates in solution can interfere with the absorption measurement, each sample was centrifuged prior to taking absorption measurements, meaning that the final concentrations were not all at 500 µM. […] In stability experiments, eight of these nine compounds (all except 46) were present in at least one condition in the degraded water samples, and four of these nine compounds (28, 31, 38, and 46) were present in the degraded feed.
(§2) Absorbance measurements were taken in the range of 380 nm to 780 nm (20 nm steps) of 100 µL of the samples in four technical replicates (Envision, Perkin Elmer, Waltham, MA, USA). From the absorbance values, the change in color was calculated using L*a*b* and ΔE* values according to DIN 5033-3 and DIN 6174 norms. The CIE 1931 standard observer (2°) and the D65 illuminant were selected.
(§3) Chemical standards were prepared as 50 mM stocks in DMSO and then spiked into the aqueous solutions (either water or feed) to achieve a theoretical compound concentration of 500 µM (1% DMSO). The solutions were centrifuged, and the absorbance measurements of these solutions was measured and converted to ΔE* values as described above. The control condition was pure DMSO (1% v/v).

CHOZN 6 cells = test: CellTiter-Glo cytotoxicity assay in CHOZN 6 cell line; type: cell-based, Chinese hamster; conditions: Cricetulus griseus, read-out: [GI50] CHOZN 6
Method: (§4) To assay the potential toxicity induced in the CHO cell culture by the Trp degradation products found in this study, a cytotoxicity assay CellTiter-Glo® Luminescent Cell Viability Assay (Cat #G7572, Promega, Madison, WI, USA) was used, following the manufacturer’s instructions. Briefly, the cells were seeded with 25,000 viable cells per cavity of a 96-well opaque white cell culture plate (Thermo Fisher, Waltham, MA, USA) in 80 µL of a pre-warmed medium. Tryptophan degradation compounds were added in triplicates to the cells, ranging from 1 mM to 46 nM. A DMSO control was added in the same concentration range as the tryptophan degradation compounds were diluted. The dose response curves were fitted with a 4PL model by GraphPad Prism v.7 (GraphPad Software, San Diego, CA, USA) after luminescence readout with an EnVision 2104 Multilabel Reader (Perkin Elmer, Waltham, MA, USA).

CHOZN 10 cells = test: CellTiter-Glo cytotoxicity assay in CHOZN 10 cell line; type: cell-based, Chinese hamster; conditions: Cricetulus griseus, read-out: [GI50] CHOZN 10
Method: as §4

CHOK1 cells = test: CellTiter-Glo cytotoxicity assay in CHOK1 cell line; type: cell-based, Chinese hamster; conditions: Cricetulus griseus
Method: as §4

[2] = Color measurement (ΔE*) of standards spiked into feed; type: physicochemical; conditions: theoretical 500 µM, 1% DMSO, ΔE* > 1 deemed significant
Method: as §1, §2, §3

CHO cells [3] = test: CHO cell toxicity summarised across the four CHO cell lines; type: cell-based, Chinese hamster; conditions: Cricetulus griseus; across all four CHO cell lines; read-out: GI50 across all cell lines
Method: as §4

cancer cell lines = system: cancer cell lines; parameters: method as in PMID 22047643; conditions: cited from earlier work
CHO cells [4] = conditions: cited from earlier work
[5] = Degradation of tryptophan in water under stressed conditions; type: physicochemical; conditions: 10 mM Trp in water pH 7, 70 °C, after 24 days
Method: For the Trp solutions, 10 mM Trp solutions were prepared in water with a pH adjustment to pH 7.0 ± 0.3 using NaOH(aq.) and sterile filtered with Steriflip® filter units (Merck, Darmstadt, Germany). For H2O2 exposure testing, the solutions were spiked with hydrogen peroxide (30%, 8.82 M) to 0, 10, 25, 50, or 100 mM, and stored for 4h at RT (~19–23 °C), light-protected. For the UV exposure effects, the solutions were stored for 4 h under a UV-lamp set to an intensity of 540 V (UV-A, -B and -C radiation). Samples tested for temperature effects were stored light-protected for 24 days at 4 °C, room temperature (RT, i.e., ~19–23 °C), 37 °C, or 70 °C. Feed solutions were sterile-filtered as above and stored for 98 days at 4 °C, RT (~19–23 °C) or 37 °C. The samples were either stored light-protected or exposed to laboratory fluorescent lighting with partial exposure to glass-filtered daylight (light-exposed). For testing the a-ketoglutaric acid effects in feed, dry powder feed was reconstituted with a-ketoglutaric acid, pH adjusted to 7.0 ± 0.3 with NaOH (aq.), filtered as above, and stored light-protected at RT (~19–23 °C) or 37 °C for 98 days. Ammonia was quantified using Cedex Bio HT (Roche, Mannheim, Germany). Aliquots were frozen at −20 °C for subsequent amino acid analysis and LC-MS.
Amino acid analysis was performed using a pre-column derivatization using the AccQ Tag® Ultra Reagent kit. […]

[6] = CHO-K1, CHOK1 GS cell line, 1 mM to 46 nM, 4PL fit, read-out: [GI50] CHOK1 GS
[7] = CHOZN 6 cell line, 1 mM to 46 nM, 4PL fit
[8] = CHOZN 10 cell line, 1 mM to 46 nM, 4PL fit
[9] = CHO-K1, CHOK1 cell line, 1 mM to 46 nM, 4PL fit, read-out: [GI50] CHOK1
[10] = CHO-K1, read-out: [GI50] CHOK1 GS

For `CC1NC(C(=O)O)Cc2c1[nH]c1ccccc21` (stereo not drawn) [Compound 23, 1-Methyl-2,3,4,9-tetrahydro-1H-beta-carboline-3-carboxylic acid], the GI50 (CHOK1 GS cells; [6]) was over 1000 µM.

For `O=C(O)C1Cc2c([nH]c3ccccc23)C=N1` (centres unmarked) [Compound 24], the “Color change as measured by ΔE* in water” value [1] was “significant color change”, the GI50 (CHOZN 6 cells; [7]) was 314 µM and the GI50 (CHOZN 10 cells; [8]) was 306 µM. For the same molecule, the GI50 (CHOK1 cells; [9]) was 312 µM, the “Color change as measured by ΔE* in feed” value [2] was “significant color change” and the GI50 (CHOK1 GS cells; [6]) was 343 µM. For the same molecule, the GI50 (CHO cells [3]) was over 226 µM.

Work on `CC1NC(C(=O)O)CC12C(=O)Nc1ccccc12` (centres unmarked) [Compound 25] yielded a GI50 (CHOK1 GS cells; [6]) of over 1000 µM.

In the case of `c1ccc2c(c1)[nH]c1cnccc12` [Compound 27, Norharmane], the GI50 (CHOZN 6 cells) is reported as 98.5 µM, the GI50 (CHOZN 10 cells) is reported as 64.5 µM and the GI50 (CHOK1 cells; CHO-K1, read-out: [GI50] CHOK1) is reported as 74.8 µM. The GI50 (CHOK1 GS cells; [10]) was 127 µM.

With `Cc1nccc2c1[nH]c1ccccc12` [Compound 28, Harmane] the GI50 (CHOZN 6 cells) was 65.5 µM, the GI50 (CHOZN 10 cells) was 77.3 µM and the GI50 (CHOK1 cells; CHO-K1, read-out: [GI50] CHOK1) was 74.9 µM. The “Color change as measured by ΔE* in feed” value [2] was “significant color change” and the GI50 (CHOK1 GS cells; [10]) was 170 µM.

Molecule `OCc1nccc2c1[nH]c1ccccc12` [Compound 29] has a GI50 (CHOZN 6 cells; [7]) of over 1000 µM, a GI50 (CHOZN 10 cells; [8]) of 347 µM and a GI50 (CHOK1 cells; [9]) of 389 µM. The GI50 (CHOK1 GS cells; [6]) was 157 µM.

For `O=C(O)c1cc2c([nH]c3ccccc32)c(C(=O)c2c[nH]c3ccccc23)n1` [Compound 31, 1-(1H-Indol-3-ylcarbonyl)-9H-pyrido[3,4-b]indole-3-carboxylic acid], the GI50 (CHOZN 6 cells; [7]) was 13 µM, the GI50 (CHOZN 10 cells; [8]) was 14.4 µM and the GI50 (CHOK1 cells; [9]) was 21.6 µM. The “Color change as measured by ΔE* in feed” value [2] was “significant color change”, the “toxicity against some cancer cell lines” value (cancer cell lines) was “demonstrated toxicity against some cancer cell lines” and the GI50 (CHOK1 GS cells; [6]) was 34.6 µM. For the same molecule, the GI50 (CHO cells [3]) was 10 to 22 µM.

In the case of `O=C(c1c[nH]c2ccccc12)c1nccc2c1[nH]c1ccccc12` [Compound 32, 1H-Indol-3-yl-9H-pyrido[3,4-b]indol-1-ylmethanone], the “toxicity against some cancer cell lines” value (cancer cell lines) is given as “demonstrated toxicity against some cancer cell lines” and the GI50 (CHOK1 GS cells; [6]) is given as over 1000 µM.

With `O=C(O)c1cc2c([nH]c3ccccc32)c(-c2ccnc3ccccc23)n1` [Compound 38] the “Color change as measured by ΔE* in water” value [1] was “significant color change”, the GI50 (CHOZN 6 cells; [7]) was 98.9 µM and the GI50 (CHOZN 10 cells; [8]) was 114 µM. It also gave a GI50 (CHOK1 cells; [9]) of 124 µM and a GI50 (CHOK1 GS cells; [6]) of 118 µM.

Work on `Cc1ncc(CO)c(C2NC(C(=O)O)Cc3c2[nH]c2ccccc32)c1O` (centres unmarked) [Compound 42] yielded a GI50 (CHOK1 GS cells; [6]) of over 1000 µM.

Molecule `Cc1nc(C(=O)O)cc2c1[nH]c1ccccc12` [Compound 45] has a GI50 (CHOK1 GS cells; [6]) of over 1000 µM.

In the case of `NC(=O)Cc1c[nH]c2ccccc12` [Compound 47, 3-Indoleacetamide], the GI50 (CHOK1 GS cells; [6]) is reported as over 1000 µM.

`CC(C)CC1NC(C(=O)O)Cc2c1[nH]c1ccccc21` (centres unmarked) [Compound 56, 2,3,4,9-Tetrahydro-1-(2-methylpropyl)-1H-pyrido[3,4-b]indole-3-carboxylic acid] gave a GI50 (CHOK1 GS cells; [6]) of over 1000 µM.

For `CC(=O)c1nccc2c1[nH]c1ccccc12` [Compound 62, 1-Acetyl-β-carboline], the GI50 (CHOK1 GS cells; [6]) was over 1000 µM.

In the case of `O=C(O)CCC(=O)O` [Compound 66, succinic acid], the “toxicity to CHO cells” value (CHO cells [4]) is given as “not toxic to CHO cells”.

In the case of `N[C@@H](Cc1c[nH]c2ccccc12)C(=O)O` [Trp, L-Tryptophan], the Trp total loss [5] is reported as 42%.

For `O=C(O)CCC(=O)C(=O)O` [aKG, a-Ketoglutaric acid], the “effect on the CHO cell culture” value (CHO cells [4]; up to 50 mM) is given as “no detrimental effect”.
